Assays:
barnyardgrass = assay: Test A postemergence; type: in vivo, Echinochloa crus-galli
Outline: (§1)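 Visual 0–100 rating (100 = complete control) taken about 10 d post-treatment relative to untreated checks. Preemergence: directed soil spray on sown loam/sand pots. Postemergence: seedlings 2–10 cm, 1–2 leaf. Non-phytotoxic solvent formulation with surfactant.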

giant foxtail [1] = assay: Test A postemergence; type: in vivo, Setaria faberii
Outline: as §1

corn [2] = assay: Test A postemergence; type: in vivo, Zea mays
Outline: as §1

Heteranthera limosa = assay: Test B flooded paddy test; type: in vivo; conditions: Flood, 250 g ai/ha, 0 to 100 scale where 0 is no effect and 100 is complete control
Outline: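 Seedlings are raised to two leaves, flooded to a depth of 3 cm and dosed by adding the compound to the floodwater. Water level is kept constant, and plants are scored visually versus controls 13–15 days later (0 = no effect, 100 = complete control).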

corn [3] = assay: Test C postemergence; type: in vivo, Zea mays
Outline: (§2)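 Seeds are planted in blended loam soil and sand and treated preemergence, while seedlings in a peat moss/vermiculite medium receive postemergence sprays at 2 to 18 cm height. All plants stay in the greenhouse for 13 to 15 days before visual comparison with controls on a 0–100 scale.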

giant foxtail [4] = assay: Test C postemergence; type: in vivo, Setaria faberii
Outline: as §2

johnsongrass = assay: Test C postemergence; type: in vivo, Sorghum halepense; conditions: for Johnsongrass plant response rating: 31 g ai/ha
Outline: as §2

morningglory = assay: Test C postemergence; type: in vivo, Ipomoea coccinea; conditions: for Morningglory plant response rating: 31 g ai/ha
Outline: as §2

pigweed = assay: Test C postemergence; type: in vivo, Amaranthus retroflexus; conditions: for Pigweed plant response rating: 31 g ai/ha
Outline: as §2

oilseed rape = assay: Test C postemergence; type: in vivo, Brassica napus; conditions: for Oilseed Rape plant response rating: 31 g ai/ha
Outline: as §2

waterhemp = assay: Test C postemergence; type: in vivo, Amaranthus rudis; conditions: for Waterhemp plant response rating: 31 g ai/ha
Outline: as §2

velvetleaf = assay: Test C postemergence; type: in vivo, Abutilon theophrasti; conditions: for Velvetleaf plant response rating: 31 g ai/ha
Outline: as §2

[5] = postemergence, visual rating, scale 0 to 100 (0 no effect, 100 complete control), 13 to 15 days
[6] = 125 g ai/ha, 0 to 100 scale, 0 no effect, 100 complete control
[7] = 500 g ai/ha, 0 to 100 scale where 0 is no effect and 100 is complete control
[8] = 16 g ai/ha, postemergence, 0 is no effect, 100 is complete control
[9] = 31 g ai/ha, postemergence, visual rating, scale 0 to 100 (0 no effect, 100 complete control), 13 to 15 days
[10] = 125 g ai/ha, postemergence, visual rating, scale 0 to 100 (0 no effect, 100 complete control)
[11] = Postemergence, 62 g ai/ha, scale 0 to 100 (0 no effect, 100 complete control), 13 to 15 days

N#Cc1cccc(Oc2ncc(Cl)cn2)c1-n1cc(C(F)F)cn1 [Compound 253, 3-(5-chloropyrimidin-2-yl)oxy-2-[4-(difluoromethyl)-1H-pyrazol-1-yl]benzonitrile]
pest or weed control at 31 g/ha (barnyardgrass; Echinochloa crus-galli, post-emergence, 240 h, 31 g ai/ha, 0 to 100 scale, 0 no effect, 100 complete control, read-out: Plant response rating, Barnyardgrass): 20%
pest or weed control at 125 g/ha (barnyardgrass; Echinochloa crus-galli, post-emergence, 240 h, 125 g ai/ha, 0 to 100 scale, 0 no effect, 100 complete control, read-out: Plant response rating, Barnyardgrass): 100%
pest or weed control at 31 g/ha (giant foxtail [1]; Setaria faberi, post-emergence, 240 h, 31 g ai/ha, 0 to 100 scale, 0 no effect, 100 complete control, read-out: Plant response rating, Foxtail, Giant): 20%
pest or weed control at 125 g/ha (giant foxtail [1]; Setaria faberi, post-emergence, 240 h, 125 g ai/ha, 0 to 100 scale, 0 no effect, 100 complete control, read-out: Plant response rating, Foxtail, Giant): 100%
Corn plant response rating (crop injury, 0 = no effect, 100 = complete kill) at 31 g/ha (corn [2]; Zea mays, post-emergence, 240 h, 31 g ai/ha, 0 to 100 scale, 0 no effect, 100 complete control): 20%
Corn plant response rating (crop injury, 0 = no effect, 100 = complete kill) at 125 g/ha (corn [2]; Zea mays, post-emergence, 240 h, 125 g ai/ha, 0 to 100 scale, 0 no effect, 100 complete control): 60%
pest or weed control at 250 g/ha (Heteranthera limosa; Heteranthera limosa, read-out: Plant response rating, Ducksalad): 75%
plant injury at 16 g/ha (corn [3]; Zea mays, post-emergence, 16 g ai/ha, postemergence, 0 is no effect, 100 is complete control, read-out: Plant response rating (0 to 100), Corn): 5%
plant injury at 31 g/ha (corn [3]; Zea mays, post-emergence, 31 g ai/ha, postemergence, visual rating, scale 0 to 100 (0 no effect, 100 complete control), 13 to 15 days, read-out: Corn plant response rating): 5%
Corn plant response rating (crop injury, 0 = no effect, 100 = complete kill) at 125 g/ha (corn [3]; Zea mays, post-emergence, 125 g ai/ha, postemergence, visual rating, scale 0 to 100 (0 no effect, 100 complete control)): 25%
Corn plant response rating (crop injury, 0 = no effect, 100 = complete kill) at 62 g/ha (corn [3]; Zea mays, post-emergence, Postemergence, 62 g ai/ha, scale 0 to 100 (0 no effect, 100 complete control), 13 to 15 days): 5%
pest or weed control at 16 g/ha (giant foxtail [4]; Setaria faberi, post-emergence, 16 g ai/ha, postemergence, 0 is no effect, 100 is complete control, read-out: Plant response rating (0 to 100), Foxtail, Giant): 10%
pest or weed control at 31 g/ha (giant foxtail [4]; Setaria faberi, post-emergence, 31 g ai/ha, postemergence, visual rating, scale 0 to 100 (0 no effect, 100 complete control), 13 to 15 days, read-out: Foxtail, Giant plant response rating): 45%
pest or weed control at 125 g/ha (giant foxtail [4]; Setaria faberi, post-emergence, 125 g ai/ha, postemergence, visual rating, scale 0 to 100 (0 no effect, 100 complete control), read-out: Plant response rating, Foxtail, Giant): 20%
pest or weed control at 62 g/ha (giant foxtail [4]; Setaria faberi, post-emergence, Postemergence, 62 g ai/ha, scale 0 to 100 (0 no effect, 100 complete control), 13 to 15 days, read-out: Plant response rating, Foxtail, Giant): 25%
Johnsongrass plant response rating (johnsongrass; [5]): 5
pest or weed control at 16 g/ha (johnsongrass; Sorghum halepense, post-emergence, 16 g ai/ha, postemergence, 0 is no effect, 100 is complete control, read-out: Plant response rating (0 to 100), Johnsongrass): 0%
pest or weed control at 125 g/ha (johnsongrass; Sorghum halepense, post-emergence, 125 g ai/ha, postemergence, visual rating, scale 0 to 100 (0 no effect, 100 complete control), read-out: Plant response rating, Johnsongrass): 10%
pest or weed control at 62 g/ha (johnsongrass; Sorghum halepense, post-emergence, Postemergence, 62 g ai/ha, scale 0 to 100 (0 no effect, 100 complete control), 13 to 15 days, read-out: Plant response rating, Johnsongrass): 5%
Morningglory plant response rating (morningglory; [5]): 75
pest or weed control at 16 g/ha (morningglory; Ipomoea, post-emergence, 16 g ai/ha, postemergence, 0 is no effect, 100 is complete control, read-out: Plant response rating (0 to 100), Morningglory): 60%
pest or weed control at 125 g/ha (morningglory; Ipomoea, post-emergence, 125 g ai/ha, postemergence, visual rating, scale 0 to 100 (0 no effect, 100 complete control), read-out: Plant response rating, Morningglory): 85%
pest or weed control at 62 g/ha (morningglory; Ipomoea, post-emergence, Postemergence, 62 g ai/ha, scale 0 to 100 (0 no effect, 100 complete control), 13 to 15 days, read-out: Plant response rating, Morningglory): 75%
Pigweed plant response rating (pigweed; [5]): 85
pest or weed control at 16 g/ha (pigweed; Amaranthus retroflexus, post-emergence, 16 g ai/ha, postemergence, 0 is no effect, 100 is complete control, read-out: Plant response rating (0 to 100), Pigweed): 85%
pest or weed control at 125 g/ha (pigweed; Amaranthus retroflexus, post-emergence, 125 g ai/ha, postemergence, visual rating, scale 0 to 100 (0 no effect, 100 complete control), read-out: Plant response rating, Pigweed): 95%
pest or weed control at 62 g/ha (pigweed; Amaranthus retroflexus, post-emergence, Postemergence, 62 g ai/ha, scale 0 to 100 (0 no effect, 100 complete control), 13 to 15 days, read-out: Plant response rating, Pigweed): 98%
Oilseed Rape plant response rating (oilseed rape; [5]): 60
plant injury at 16 g/ha (oilseed rape; Brassica napus, post-emergence, 16 g ai/ha, postemergence, 0 is no effect, 100 is complete control, read-out: Plant response rating (0 to 100), Oilseed Rape): 5%
plant injury at 125 g/ha (oilseed rape; Brassica napus, post-emergence, 125 g ai/ha, postemergence, visual rating, scale 0 to 100 (0 no effect, 100 complete control), read-out: Plant response rating, Oilseed Rape): 80%
plant injury at 62 g/ha (oilseed rape; Brassica napus, post-emergence, Postemergence, 62 g ai/ha, scale 0 to 100 (0 no effect, 100 complete control), 13 to 15 days, read-out: Plant response rating, Oilseed Rape): 10%
Waterhemp plant response rating (waterhemp; [5]): 75
pest or weed control at 16 g/ha (waterhemp; Amaranthus tuberculatus, post-emergence, 16 g ai/ha, postemergence, 0 is no effect, 100 is complete control, read-out: Plant response rating (0 to 100), Waterhemp): 75%
pest or weed control at 125 g/ha (waterhemp; Amaranthus tuberculatus, post-emergence, 125 g ai/ha, postemergence, visual rating, scale 0 to 100 (0 no effect, 100 complete control), read-out: Plant response rating, Waterhemp): 85%
pest or weed control at 62 g/ha (waterhemp; Amaranthus tuberculatus, post-emergence, Postemergence, 62 g ai/ha, scale 0 to 100 (0 no effect, 100 complete control), 13 to 15 days, read-out: Plant response rating, Waterhemp): 80%
Velvetleaf plant response rating (velvetleaf; [5]): 70
pest or weed control at 16 g/ha (velvetleaf; Abutilon theophrasti, post-emergence, 16 g ai/ha, postemergence, 0 is no effect, 100 is complete control, read-out: Plant response rating (0 to 100), Velvetleaf): 30%
pest or weed control at 125 g/ha (velvetleaf; Abutilon theophrasti, post-emergence, 125 g ai/ha, postemergence, visual rating, scale 0 to 100 (0 no effect, 100 complete control), read-out: Plant response rating, Velvetleaf): 85%
pest or weed control at 62 g/ha (velvetleaf; Abutilon theophrasti, post-emergence, Postemergence, 62 g ai/ha, scale 0 to 100 (0 no effect, 100 complete control), 13 to 15 days, read-out: Plant response rating, Velvetleaf): 70%

N#Cc1cnn(-c2c(Oc3ncc(F)cn3)cccc2C(F)F)c1 [Compound 240]
Plant response rating, Barnyardgrass (barnyardgrass; [6]): 90
Plant response rating, Barnyardgrass (barnyardgrass; [7]): 100
Plant response rating, Foxtail, Giant (giant foxtail [1]; [6]): 90
Plant response rating, Foxtail, Giant (giant foxtail [1]; [7]): 100
Plant response rating, Corn (corn [2]; [6]): 30
Plant response rating, Corn (corn [2]; [7]): 90
Plant response rating, Ducksalad (Heteranthera limosa): 50
Plant response rating (0 to 100), Corn (corn [3]; [8]): 0
Corn plant response rating (corn [3]; [9]): 5
Plant response rating, Corn (corn [3]; [10]): 15
Plant response rating, Corn (corn [3]; [11]): 5
Plant response rating (0 to 100), Foxtail, Giant (giant foxtail [4]; [8]): 0
Foxtail, Giant plant response rating (giant foxtail [4]; [9]): 35
Plant response rating, Foxtail, Giant (giant foxtail [4]; [10]): 40
Plant response rating, Foxtail, Giant (giant foxtail [4]; [11]): 20
Plant response rating (0 to 100), Johnsongrass (johnsongrass; [8]): 10
Johnsongrass plant response rating (johnsongrass; [5]): 5
Plant response rating, Johnsongrass (johnsongrass; [10]): 10
Plant response rating, Johnsongrass (johnsongrass; [11]): 5
Plant response rating (0 to 100), Morningglory (morningglory; [8]): 30
Morningglory plant response rating (morningglory; [5]): 65
Plant response rating, Morningglory (morningglory; [10]): 90
Plant response rating, Morningglory (morningglory; [11]): 75
Plant response rating (0 to 100), Pigweed (pigweed; [8]): 15
Pigweed plant response rating (pigweed; [5]): 30
Plant response rating, Pigweed (pigweed; [10]): 75
Plant response rating, Pigweed (pigweed; [11]): 45
Plant response rating (0 to 100), Oilseed Rape (oilseed rape; [8]): 30
Oilseed Rape plant response rating (oilseed rape; [5]): 35
Plant response rating, Oilseed Rape (oilseed rape; [10]): 60
Plant response rating, Oilseed Rape (oilseed rape; [11]): 55
Plant response rating (0 to 100), Waterhemp (waterhemp; [8]): 10
Waterhemp plant response rating (waterhemp; [5]): 25
Plant response rating, Waterhemp (waterhemp; [10]): 70
Plant response rating, Waterhemp (waterhemp; [11]): 55
Plant response rating (0 to 100), Velvetleaf (velvetleaf; [8]): 10
Velvetleaf plant response rating (velvetleaf; [5]): 25
Plant response rating, Velvetleaf (velvetleaf; [10]): 80
Plant response rating, Velvetleaf (velvetleaf; [11]): 45
